Reference: patent US7122577B1, “Composition comprising a carrier and a purified mycobacterial lipid cell-wall component and its use in the treatment and diagnosis of disease” (priority 1997, dated 2006)

Test system: adjuvant arthritis
Conditions: rat, in vivo

mycolic acids [MA tb] was tested, and the Toxic effects was “No toxic effects” and the “Toxic effects within the tested doses” value was “No toxic effects”.
